Data as given in ChEMBL document CHEMBL2380212, “Synthesis, single crystal and antitumor activities of benzimidazole-quinazoline hybrids” (Bioorg Med Chem Lett, 2013).

Legend:
NCI-H322M = test: Cytotoxicity against human NCI-H322M cells at 10 uM after 48 hrs by SRB assay; format: functional; settings: read-out: GI
RPMI-8226 = test: Cytotoxicity against human RPMI8226 cells at 10 uM after 48 hrs by SRB assay; format: functional; settings: RPMI-8226, 48 h, read-out: GI
SNB-75 = test: Cytotoxicity against human SNB75 cells at 10 uM after 48 hrs by SRB assay; format: functional; settings: SNB-75, 48 h, read-out: GI
COLO 205 = test: Cytotoxicity against human COLO205 cells at 10 uM after 48 hrs by SRB assay; format: functional; settings: COLO 205, 48 h, read-out: GI
PC-3 = test: Cytotoxicity against human PC3 cells at 10 uM after 48 hrs by SRB assay; format: functional; settings: PC-3, 48 h, read-out: GI
KM12 = test: Cytotoxicity against human KM12 cells at 10 uM after 48 hrs by SRB assay; format: functional; settings: KM12, 48 h, read-out: GI
UO-31 = test: Cytotoxicity against human UO31 cells at 10 uM after 48 hrs by SRB assay; format: functional; settings: UO-31, 48 h, read-out: GI
NCI/ADR-RES = test: Cytotoxicity against human NCI/ADR-RES cells at 10 uM after 48 hrs by SRB assay; format: functional; settings: read-out: GI
HL-60(TB) = test: Cytotoxicity against human HL-60(TB) cells at 10 uM after 48 hrs by SRB assay; format: functional; settings: HL-60, 48 h, read-out: GI
Hs-578T = test: Cytotoxicity against human Hs578T cells at 10 uM after 48 hrs by SRB assay; format: functional; settings: read-out: GI
SN12C = test: Cytotoxicity against human SN12C cells at 10 uM after 48 hrs by SRB assay; format: functional; settings: read-out: GI
MDA-MB-468 = test: Cytotoxicity against human MDA-MB-468 cells at 10 uM after 48 hrs by SRB assay; format: functional; settings: MDA-MB-468, 48 h, read-out: GI
SF-268 = test: Cytotoxicity against human SF268 cells at 10 uM after 48 hrs by SRB assay; format: functional; settings: SF-268, 48 h, read-out: GI
SW-620 = test: Cytotoxicity against human SW620 cells at 10 uM after 48 hrs by SRB assay; format: functional; settings: SW-620, 48 h, read-out: GI
OVCAR-3 = test: Cytotoxicity against human OVCAR3 cells at 10 uM after 48 hrs by SRB assay; format: functional; settings: OVCAR-3, 48 h, read-out: GI
SK-MEL-28 = test: Cytotoxicity against human SK-MEL-28 cells at 10 uM after 48 hrs by SRB assay; format: functional; settings: SK-MEL-28, 48 h, read-out: GI
A549 = test: Cytotoxicity against human A549 cells at 10 uM after 48 hrs by SRB assay; format: functional; settings: A549, 48 h, read-out: GI
SF-539 = test: Cytotoxicity against human SF539 cells at 10 uM after 48 hrs by SRB assay; format: functional; settings: SF-539, 48 h, read-out: GI
ACHN = test: Cytotoxicity against human ACHN cells at 10 uM after 48 hrs by SRB assay; format: functional; settings: read-out: GI
SNB-19 = test: Cytotoxicity against human SNB19 cells at 10 uM after 48 hrs by SRB assay; format: functional; settings: SNB-19, 48 h, read-out: GI
HOP-62 = test: Cytotoxicity against human HOP62 cells at 10 uM after 48 hrs by SRB assay; format: functional; settings: HOP-62, 48 h, read-out: GI
HT-29 = test: Cytotoxicity against human HT-29 cells at 10 uM after 48 hrs by SRB assay; format: functional; settings: HT-29, 48 h, read-out: GI
K562 = test: Cytotoxicity against human K562 cells at 10 uM after 48 hrs by SRB assay; format: functional; settings: K562, 48 h, read-out: GI
MDA-MB-231 = test: Cytotoxicity against human MDA-MB-231 cells at 10 uM after 48 hrs by SRB assay; format: functional; settings: MDA-MB-231, 48 h, read-out: GI
CAKI-1 = test: Cytotoxicity against human Caki1 cells at 10 uM after 48 hrs by SRB assay; format: functional; settings: CAKI-1, 48 h, read-out: GI
NCI-H23 = test: Cytotoxicity against human NCI-H23 cells at 10 uM after 48 hrs by SRB assay; format: functional; settings: NCI-H23, 48 h, read-out: GI
NCI-H226 = test: Cytotoxicity against human NCI-H226 cells at 10 uM after 48 hrs by SRB assay; format: functional; settings: NCI-H226, 48 h, read-out: GI
M14 = test: Cytotoxicity against human M14 cells at 10 uM after 48 hrs by SRB assay; format: functional; settings: M14, 48 h, read-out: GI
[1] = n-Octanol-phosphate buffer partition coefficient, log P of the compound at pH 7.4 by shake flask method; format: physicochemical
SF-295 = test: Cytotoxicity against human SF295 cells at 10 uM after 48 hrs by SRB assay; format: functional; settings: SF-295, 48 h, read-out: GI
OVCAR-5 = test: Cytotoxicity against human OVCAR5 cells at 10 uM after 48 hrs by SRB assay; format: functional; settings: OVCAR-5, 48 h, read-out: GI
786-0 = test: Cytotoxicity against human 786-0 cells at 10 uM after 48 hrs by SRB assay; format: functional; settings: 786-0, 48 h, read-out: GI
MCF7 = test: Cytotoxicity against human MCF7 cells at 10 uM after 48 hrs by SRB assay; format: functional; settings: MCF7, 48 h, read-out: GI
LOX IMVI = test: Cytotoxicity against human LOXIMVI cells at 10 uM after 48 hrs by SRB assay; format: functional; settings: read-out: GI
U-251 = test: Cytotoxicity against human U251 cells at 10 uM after 48 hrs by SRB assay; format: functional; settings: U-251, 48 h, read-out: GI
DU-145 = test: Cytotoxicity against human DU145 cells at 10 uM after 48 hrs by SRB assay; format: functional; settings: DU-145, 48 h, read-out: GI
SK-MEL-2 = test: Cytotoxicity against human SK-MEL-2 cells at 10 uM after 48 hrs by SRB assay; format: functional; settings: SK-MEL-2, 48 h, read-out: GI
SK-OV-3 = test: Cytotoxicity against human SKOV3 cells at 10 uM after 48 hrs by SRB assay; format: functional; settings: SK-OV-3, 48 h, read-out: GI
HCT-116 = test: Cytotoxicity against human HCT116 cells at 10 uM after 48 hrs by SRB assay; format: functional; settings: HCT-116, 48 h, read-out: GI
HCT-15 = test: Cytotoxicity against human HCT15 cells at 10 uM after 48 hrs by SRB assay; format: functional; settings: HCT-15, 48 h, read-out: GI
UACC-257 = test: Cytotoxicity against human UACC257 cells at 10 uM after 48 hrs by SRB assay; format: functional; settings: UACC-257, 48 h, read-out: GI
SR = test: Cytotoxicity against human SR cells at 10 uM after 48 hrs by SRB assay; format: functional; settings: read-out: GI
[2] = Cytotoxicity against human EKVX cells at 10 uM after 48 hrs by SRB assay; format: functional; settings: read-out: GI

For `C=CCn1c(C)nc2ccc(Nc3nc(N4CCN(C)CC4)nc4ccccc34)cc21`, the inhibition of growth at 10 µM (NCI-H322M) was < 10%, the inhibition of growth at 10 µM (RPMI-8226) was 28.5% and the inhibition of growth at 10 µM (SNB-75) was 17.6%. For the same compound, the inhibition of growth at 10 µM (COLO 205) was 23.6%, the inhibition of growth at 10 µM (PC-3) was 25.9% and the inhibition of growth at 10 µM (KM12) was 20.5%. For the same compound, the inhibition of growth at 10 µM (UO-31) was 34.2%, the inhibition of growth at 10 µM (NCI/ADR-RES) was < 10% and the inhibition of growth at 10 µM (HL-60(TB)) was < 10%. For the same compound, the inhibition of growth at 10 µM (Hs-578T) was 23.3%, the inhibition of growth at 10 µM (SN12C) was < 10% and the inhibition of growth at 10 µM (MDA-MB-468) was < 10%. For the same compound, the inhibition of growth at 10 µM (SF-268) was < 10%, the inhibition of growth at 10 µM (SW-620) was < 10% and the inhibition of growth at 10 µM (OVCAR-3) was < 10%. The inhibition of growth at 10 µM (SK-MEL-28) was < 10%, the inhibition of growth at 10 µM (A549) was < 10% and the inhibition of growth at 10 µM (SF-539) was 23.5%. The inhibition of growth at 10 µM (ACHN) was < 10%, the inhibition of growth at 10 µM (SNB-19) was < 10% and the inhibition of growth at 10 µM (HOP-62) was 11.3%. The inhibition of growth at 10 µM (HT-29) was 42.6%, the inhibition of growth at 10 µM (K562) was 37.8% and the inhibition of growth at 10 µM (MDA-MB-231) was 22.8%. It also gave an inhibition of growth at 10 µM (CAKI-1) of 14.4%, an inhibition of growth at 10 µM (NCI-H23) of 19.2% and an inhibition of growth at 10 µM (NCI-H226) of 13.6%. The inhibition of growth at 10 µM (M14) was < 10%, the logD [1] was 1.03 and the inhibition of growth at 10 µM (SF-295) was < 10%. The inhibition of growth at 10 µM (OVCAR-5) was 16.5%, the inhibition of growth at 10 µM (786-0) was < 10% and the inhibition of growth at 10 µM (MCF7) was 14.4%. The inhibition of growth at 10 µM (LOX IMVI) was 18%, the inhibition of growth at 10 µM (U-251) was 10.2% and the inhibition of growth at 10 µM (DU-145) was < 10%. The inhibition of growth at 10 µM (SK-MEL-2) was < 10%, the inhibition of growth at 10 µM (SK-OV-3) was < 10% and the inhibition of growth at 10 µM (HCT-116) was 33%. For the same compound, the inhibition of growth at 10 µM (HCT-15) was 10.1% and the inhibition of growth at 10 µM (UACC-257) was < 10%.
With `C=CCn1c(C)nc2ccc(Nc3nc(N4CCOCC4)nc4ccccc34)cc21` the inhibition of growth at 10 µM (NCI-H322M) was < 10%, the inhibition of growth at 10 µM (SNB-75) was 12.6% and the inhibition of growth at 10 µM (COLO 205) was < 10%. For the same compound, the inhibition of growth at 10 µM (PC-3) was 11.4%, the inhibition of growth at 10 µM (SR) was < 10% and the inhibition of growth at 10 µM (KM12) was 11.9%. The inhibition of growth at 10 µM (UO-31) was 14.7%, the inhibition of growth at 10 µM (NCI/ADR-RES) was 23.6% and the inhibition of growth at 10 µM (HL-60(TB)) was 61.9%. The inhibition of growth at 10 µM (Hs-578T) was < 10%, the inhibition of growth at 10 µM (SN12C) was < 10% and the inhibition of growth at 10 µM (MDA-MB-468) was < 10%. For the same compound, the inhibition of growth at 10 µM (SF-268) was < 10%, the inhibition of growth at 10 µM (SW-620) was < 10% and the inhibition of growth at 10 µM (OVCAR-3) was < 10%. The inhibition of growth at 10 µM (SK-MEL-28) was < 10%, the inhibition of growth at 10 µM (A549) was 11.8% and the inhibition of growth at 10 µM (SF-539) was < 10%. The inhibition of growth at 10 µM (ACHN) was < 10%, the inhibition of growth at 10 µM (SNB-19) was < 10% and the inhibition of growth at 10 µM (HOP-62) was < 10%. The inhibition of growth at 10 µM (HT-29) was 34.7%, the inhibition of growth at 10 µM (K562) was 35.6% and the inhibition of growth at 10 µM (MDA-MB-231) was < 10%. The inhibition of growth at 10 µM (CAKI-1) was 11.5%, the inhibition of growth at 10 µM (NCI-H23) was < 10% and the inhibition of growth at 10 µM (NCI-H226) was < 10%. The inhibition of growth at 10 µM (M14) was < 10%, the logD [1] was 2.81 and the inhibition of growth at 10 µM (SF-295) was < 10%. The inhibition of growth at 10 µM (OVCAR-5) was < 10%, the inhibition of growth at 10 µM (786-0) was < 10% and the inhibition of growth at 10 µM [2] was < 10%. The inhibition of growth at 10 µM (MCF7) was < 10%, the inhibition of growth at 10 µM (LOX IMVI) was < 10% and the inhibition of growth at 10 µM (U-251) was < 10%. The inhibition of growth at 10 µM (DU-145) was < 10%, the inhibition of growth at 10 µM (SK-MEL-2) was < 10% and the inhibition of growth at 10 µM (SK-OV-3) was < 10%. The inhibition of growth at 10 µM (HCT-116) was < 10%, the inhibition of growth at 10 µM (HCT-15) was < 10% and the inhibition of growth at 10 µM (UACC-257) was < 10%.
